Earlier results as cited in Sander's compilation of Henry's law constants.
One block for each compound: values may come before it.

Assay: Henry solubility constant Hcp at 298.15 K (mol/(m3 Pa))
Conditions: cited value
[1] = reference: Fogg and Sangster (2003)
[2] = reference: Burkholder et al. (2015)
[3] = reference: Burkholder et al. (2019)
[4] = reference: Mackay et al. (1992b)
[5] = reference: Sander et al. (2006)
[6] = reference: Sander et al. (2011)
[7] = reference: Dohnal et al. (2006)
[8] = reference: Barcelo and Hennion (1997)
[9] = reference: Plyasunov et al. (2006)

Henry solubility constant Hcp (reference: Brockbank (2013)): 15
SMILES: c1ccc2c(c1)-c1cccc3c1c-2cc1ccccc13 [benzo[b]fluoranthene]

Henry solubility constant Hcp (reference: Brockbank (2013)): 0.0064
SMILES: CCOC(=O)C(C)(C)C [ethyl 2,2-dimethylpropanoate]

SMILES: Nc1ccc([N+](=O)[O-])cc1 [4-nitrobenzenamine]
Henry solubility constant Hcp (reference: Brockbank (2013)): 8700

Henry solubility constant Hcp (reference: Brockbank (2013)): 1.2
SMILES: Cc1cccnc1 [3-methylpyridine]

SMILES: CCc1ccccc1 [ethylbenzene]
Henry solubility constant Hcp (reference: Brockbank (2013)): 0.0013
Henry solubility constant Hcp [1]: 0.0014
Henry solubility constant Hcp (reference: Goldstein (1982)): 0.0016

Henry solubility constant Hcp (reference: Brockbank (2013)): 3.4e-06
SMILES: CCCCCCCC [octane]

SMILES: Clc1ccccc1 [chlorobenzene]
Henry solubility constant Hcp (reference: Brockbank (2013)): 0.0026
Henry solubility constant Hcp (reference: Goldstein (1982)): 0.0025

Henry solubility constant Hcp (reference: Brockbank (2013)): 12
Henry solubility constant Hcp (reference: Howard (1989)): 11
SMILES: Cc1cccc(O)c1 [1-hydroxy-3-methylbenzene]

Henry solubility constant Hcp (reference: Brockbank (2013)): 0.14
SMILES: CCCCCCCCCCCO [1-undecanol]

Henry solubility constant Hcp (reference: Brockbank (2013)): 2.2e-06
SMILES: C=CCCCCCCCCCCCCC [1-pentadecene]

SMILES: CC(Cl)CCl (stereo not drawn) [1,2-dichloropropane]
Henry solubility constant Hcp (reference: Brockbank (2013)): 0.0034
Henry solubility constant Hcp [2]: 0.0034
Henry solubility constant Hcp [3]: 0.0034
Henry solubility constant Hcp (reference: Goldstein (1982)): 0.0034
Henry solubility constant Hcp (reference: Horvath and Getzen (1999)): 0.0035

Henry solubility constant Hcp [4]: 1
SMILES: c1ccc(Cc2ccccc2)cc1 [diphenylmethane]

Henry solubility constant Hcp (reference: Brockbank (2013)): 0.051
SMILES: CCCC(=O)CCC [4-heptanone]

SMILES: COO [methyl hydroperoxide]
Henry solubility constant Hcp (reference: Brockbank (2013)): 3
Henry solubility constant Hcp [2]: 3
Henry solubility constant Hcp [3]: 3
Henry solubility constant Hcp [5]: 3
Henry solubility constant Hcp [6]: 3

SMILES: CCCI [1-iodopropane]
Henry solubility constant Hcp (reference: Brockbank (2013)): 0.0011

Henry solubility constant Hcp (reference: Brockbank (2013)): 0.00018
SMILES: CCCCCCCCc1ccccc1 [octylbenzene]

Henry solubility constant Hcp (reference: Brockbank (2013)): 0.02
Henry solubility constant Hcp [1]: 0.022
SMILES: Cc1cccc2ccccc12 [1-methylnaphthalene]

Henry solubility constant Hcp (reference: Régimbal and Mozurkewich (1997)): 57
SMILES: [O-]O [hydroperoxy radical]

Henry solubility constant Hcp (reference: Brockbank (2013)): 2.6e-05
SMILES: C[C@@H]1CCCC[C@@H]1C [cis-1,2-dimethylcyclohexane]

SMILES: CCCO [1-propanol]
Henry solubility constant Hcp (reference: Brockbank (2013)): 1.5
Henry solubility constant Hcp [2]: 1.4
Henry solubility constant Hcp [3]: 1.4
Henry solubility constant Hcp [7]: 1.4
Henry solubility constant Hcp [1]: 1.4
Henry solubility constant Hcp [5]: 1.3
Henry solubility constant Hcp [6]: 1.4

SMILES: CS(C)=O [dimethylsulfoxide]
Henry solubility constant Hcp (reference: Betterton (1992)): 14
Henry solubility constant Hcp (reference: Brockbank (2013)): 8000
Henry solubility constant Hcp [2]: 980
Henry solubility constant Hcp [3]: 980
Henry solubility constant Hcp [5]: 980
Henry solubility constant Hcp [6]: 980

SMILES: O=C(F)Cl [carbonic chloride fluoride]
Henry solubility constant Hcp (reference: George et al. (1993)): 0.099

SMILES: COC[C@H](C)N(C(=O)CCl)c1c(C)csc1C [dimethenamid-p]
Henry solubility constant Hcp (reference: MacBean (2012b)): 2100

Henry solubility constant Hcp (reference: Brockbank (2013)): 0.015
SMILES: CCOC(=O)C(C)C [ethyl 2-methylpropanoate]

SMILES: CCCCOCCOC(C)=O [2-butoxyethyl ethanoate]
Henry solubility constant Hcp (reference: Brockbank (2013)): 1.8

Henry solubility constant Hcp (reference: Brockbank (2013)): 0.0066
SMILES: CCCCOC [methyl butyl ether]

SMILES: CCOP(=O)(OCC)OC(=CCl)c1ccc(Cl)cc1Cl [chlorfenvinphos]
Henry solubility constant Hcp [8]: 35

SMILES: CCC(C)Cl (stereo not drawn) [2-chlorobutane]
Henry solubility constant Hcp (reference: Brockbank (2013)): 0.00041

Henry solubility constant Hcp (reference: Brockbank (2013)): 0.00027
SMILES: CCCCCCCc1ccccc1 [heptylbenzene]

Henry solubility constant Hcp (reference: Brockbank (2013)): 0.98
SMILES: Cc1ccccn1 [2-methylpyridine]

SMILES: c1ccccc1 [benzene]
Henry solubility constant Hcp (reference: Brockbank (2013)): 0.0018
Henry solubility constant Hcp (reference: Goldstein (1982)): 0.0018

SMILES: CC(C)CO [2-methyl-1-propanol]
Henry solubility constant Hcp (reference: Brockbank (2013)): 0.8
Henry solubility constant Hcp [2]: 0.83
Henry solubility constant Hcp [3]: 0.83
Henry solubility constant Hcp [5]: 1
Henry solubility constant Hcp [6]: 1

Henry solubility constant Hcp (reference: Brockbank (2013)): 0.0013
SMILES: C1=CCC=CC1 [1,4-cyclohexadiene]

Henry solubility constant Hcp (reference: Brockbank (2013)): 8e-06
SMILES: CC(C)C(C)C [2,3-dimethylbutane]

SMILES: O=[N+]([O-])c1ccccc1O [2-nitrophenol]
Henry solubility constant Hcp (reference: Goldstein (1982)): 0.69

SMILES: CI [iodomethane]
Henry solubility constant Hcp (reference: Brockbank (2013)): 0.002
Henry solubility constant Hcp [2]: 0.002
Henry solubility constant Hcp [3]: 0.002
Henry solubility constant Hcp (reference: Liss and Slater (1974)): 0.0017
Henry solubility constant Hcp [5]: 0.002
Henry solubility constant Hcp [6]: 0.002

Henry solubility constant Hcp (reference: Brockbank (2013)): 0.0074
SMILES: CC(C)COC(=O)C(C)C [2-methylpropyl 2-methylpropanoate]

Henry solubility constant Hcp (reference: Clever (1979b)): 9.1e-05
SMILES: [Rn] [radon]

SMILES: N#CCCCCC#N [hexanedinitrile]
Henry solubility constant Hcp [9]: 1500

SMILES: CCSCC [diethyl sulfide]
Henry solubility constant Hcp [2]: 0.0035
Henry solubility constant Hcp [3]: 0.0035

SMILES: Clc1ccc(Cl)c(-c2cc(Cl)ccc2Cl)c1 [2,2',5,5'-tetrachlorobiphenyl]
Henry solubility constant Hcp (reference: Murphy et al. (1983b)): 0.038

Henry solubility constant Hcp (reference: Howard and Meylan (1997)): 0.12
SMILES: CCOCCOCC [1,2-diethoxyethane]

SMILES: CCO [ethanol]
Henry solubility constant Hcp (reference: Brockbank (2013)): 1.8
Henry solubility constant Hcp [2]: 1.9
Henry solubility constant Hcp [3]: 1.9
Henry solubility constant Hcp [7]: 1.8
Henry solubility constant Hcp (reference: Dubowski (1979)): 1.9
Henry solubility constant Hcp [1]: 1.7
Henry solubility constant Hcp (reference: Gaffney and Senum (1984)): 2
Henry solubility constant Hcp [5]: 2
Henry solubility constant Hcp [6]: 1.9
Henry solubility constant Hcp (reference: Schaffer and Daubert (1969)): 1.5
Henry solubility constant Hcp (reference: Timmermans (1960)): 1.6
Henry solubility constant Hcp (reference: Warneck (2006)): 1.9

SMILES: Cc1cccc(C=O)c1 [3-methylbenzaldehyde]
Henry solubility constant Hcp (reference: Brockbank (2013)): 0.35

SMILES: CCOC(=O)CC(SP(=S)(OC)OC)C(=O)OCC (stereo not drawn) [malathion]
Henry solubility constant Hcp [8]: 4.3
Henry solubility constant Hcp (reference: Brockbank (2013)): 20

SMILES: CCCCC(O)(Cn1cncn1)c1ccc(Cl)cc1Cl (stereo not drawn) [hexaconazole]
Henry solubility constant Hcp [8]: 28

Henry solubility constant Hcp (reference: Brockbank (2013)): 2.6e-06
SMILES: CCCCC(C)CC (stereo not drawn) [3-methylheptane]

Henry solubility constant Hcp (reference: Brockbank (2013)): 0.013
SMILES: CC(C)CC(=O)CC(C)C [2,6-dimethyl-4-heptanone]

Henry solubility constant Hcp (reference: Brockbank (2013)): 0.0027
SMILES: Cc1ccc(Cl)cc1 [1-chloro-4-methylbenzene]

Henry solubility constant Hcp (reference: Brockbank (2013)): 0.029
SMILES: C=C(C)C(=O)OC [methyl methacrylate]

SMILES: CCc1ccc2ccccc2c1 [2-ethylnaphthalene]
Henry solubility constant Hcp [4]: 0.013

SMILES: C=CC(=O)OCC [ethyl propenoate]
Henry solubility constant Hcp (reference: Brockbank (2013)): 0.039

Henry solubility constant Hcp (reference: Brockbank (2013)): 0.00041
SMILES: CCCCCCl [1-chloropentane]

SMILES: Fc1c(F)c(F)c(F)c(F)c1F [hexafluorobenzene]
Henry solubility constant Hcp (reference: Brockbank (2013)): 0.0003

Henry solubility constant Hcp (reference: Brockbank (2013)): 1.1e-05
SMILES: C=CCCCCCCC [1-nonene]

SMILES: C=C [ethene]
Henry solubility constant Hcp [2]: 5.9e-05
Henry solubility constant Hcp [3]: 5.9e-05
Henry solubility constant Hcp (reference: Deno and Berkheimer (1960)): 4.7e-05
Henry solubility constant Hcp (reference: Hayduk (1994)): 4.7e-05
Henry solubility constant Hcp [5]: 5.9e-05
Henry solubility constant Hcp [6]: 5.9e-05

Henry solubility constant Hcp [1]: 0.0029
SMILES: COC(F)(F)C(Cl)Cl [2,2-dichloro-1,1-difluoro-1-methoxyethane]

SMILES: COc1nc(NC(C)C)nc(NC(C)C)n1 [prometone]
Henry solubility constant Hcp [8]: 110

Henry solubility constant Hcp (reference: Brockbank (2013)): 0.012
SMILES: CC(=O)OC(C)(C)C [1,1-dimethylethyl ethanoate]

SMILES: CCCCO[N+](=O)[O-] [1-butyl nitrate]
Henry solubility constant Hcp [2]: 0.01
Henry solubility constant Hcp [3]: 0.01
Henry solubility constant Hcp [5]: 0.01
Henry solubility constant Hcp [6]: 0.01

Henry solubility constant Hcp (reference: Brockbank (2013)): 8.2
SMILES: Cc1ccc(C)c(O)c1 [1-hydroxy-2,5-dimethylbenzene]

SMILES: N#CCCCC#N [pentanedinitrile]
Henry solubility constant Hcp [9]: 780

Henry solubility constant Hcp (reference: Brockbank (2013)): 0.0027
SMILES: Cc1ccc(Cl)cc1Cl [2,4-dichloro-1-methylbenzene]

SMILES: c1ccc2cc3c(cc2c1)-c1cccc2cccc-3c12 [benzo[k]fluoranthene]
Henry solubility constant Hcp (reference: Goldstein (1982)): 0.0096

Henry solubility constant Hcp (reference: Brockbank (2013)): 4.4e-06
SMILES: CCCCCCC [heptane]

Henry solubility constant Hcp (reference: Brockbank (2013)): 0.81
SMILES: CCNc1ccccc1 [(ethylamino)-benzene]

SMILES: COC(=O)C(F)(F)F [trifluoroethanoic acid, methyl ester]
Henry solubility constant Hcp [2]: 0.0011
Henry solubility constant Hcp [3]: 0.0011
Henry solubility constant Hcp [6]: 0.0011

Henry solubility constant Hcp (reference: Brockbank (2013)): 2.2
SMILES: NC1CCCCC1 [cyclohexanamine]

SMILES: CCSSCC [diethyl disulfide]
Henry solubility constant Hcp [2]: 0.0037
Henry solubility constant Hcp [3]: 0.0037

SMILES: CNC=O [N-methylmethanamide]
Henry solubility constant Hcp (reference: Brockbank (2013)): 1400
Henry solubility constant Hcp [2]: 1400
Henry solubility constant Hcp [3]: 1400

Henry solubility constant Hcp (reference: Brockbank (2013)): 0.026
SMILES: CCCCOC=O [butyl methanoate]

Henry solubility constant Hcp (reference: Brockbank (2013)): 5.7e-06
SMILES: CCC(C)(C)C [2,2-dimethylbutane]

SMILES: CCOC(=O)CCl [ethyl chloroethanoate]
Henry solubility constant Hcp (reference: Brockbank (2013)): 0.26

SMILES: CN(C)C [trimethylamine]
Henry solubility constant Hcp [2]: 0.099
Henry solubility constant Hcp [3]: 0.099

SMILES: COP(=S)(OC)Oc1ccc([N+](=O)[O-])cc1 [methylparathion]
Henry solubility constant Hcp [8]: 0.47

Henry solubility constant Hcp (reference: Brockbank (2013)): 3.1e-06
SMILES: CC(C)CCC(C)C [2,5-dimethylhexane]

Henry solubility constant Hcp (reference: Brockbank (2013)): 0.22
SMILES: CCCCCCCCN [1-octanamine]

SMILES: COP(=S)(OC)Oc1ccc(Sc2ccc(OP(=S)(OC)OC)cc2)cc1 [temefos]
Henry solubility constant Hcp [8]: 1.7

SMILES: CCS [ethanethiol]
Henry solubility constant Hcp [2]: 0.0028
Henry solubility constant Hcp [3]: 0.0028
Henry solubility constant Hcp [5]: 0.0028
Henry solubility constant Hcp [6]: 0.0028
